Assay results reported in PMC11642236, “Valorization of Hom Thong Banana Peel (Musa sp., AAA Group) as an Anti-Melanogenic Agent Through Inhibition of Pigmentary Genes and Molecular Docking Study” (International Journal of Molecular Sciences, 2024).
Values after ≈ are worked out from the molar mass of the structure shown.

These compounds were tested against T1, mushroom tyrosinase (assay: L-dopachrome formation, absorbance at […] nm). Conditions: L-DOPA as substrate (diphenolase); 0.1 M phosphate buffer, room temperature, 30 min.
T1 construct: gene PPO3; PDB 2Y9X used only for docking
Assay type: biochemical, Agaricus bisporus

SMILES | IC50 Values (mg/mL) / L-DOPA as the Substrate [mg/mL]
OC[C@H]1O[C@@H](Oc2ccc(O)cc2)[C@H](O)[C@@H](O)[C@@H]1O [Arbutin, reference compound] | 3.44 ± 0.04 (≈ 12.6 mM)
O=C(/C=C/c1ccc(O)c(O)c1)O[C@H](Cc1ccc(O)c(O)c1)C(=O)O [Rosmarinic acid] | 3.62 ± 0.08 (≈ 10 mM)

Results, then the compound that gave them:

IC50 Values (mg/mL) / L-DOPA as the Substrate [mg/mL] | SMILES
6.42 ± 0.45 (≈ 22.1 mM) | Oc1cc(O)c2c(c1)O[C@H](c1ccc(O)c(O)c1)[C@@H](O)C2 [Catechin]
3.93 ± 0.09 (≈ 20.2 mM) | COc1cc(/C=C/C(=O)O)ccc1O [Ferulic acid]
4.19 ± 0.15 (≈ 25.5 mM) | O=C(O)/C=C/c1ccccc1O [o-Coumaric acid]
